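Values below derive from 48-hour exposures of cells grown in 96-well plates, with endpoints linearly interpolated between the two concentrations bracketing the appropriate inhibition level. TGI marks complete inhibition of growth.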
Assays:
Test in all cases: growth of human tumour cells (NCI), 48 h
A498 renal = tested on: A498 renal
ACHN renal = tested on: ACHN renal
BT-549 breast = tested on: BT-549 breast
COLO 205 colon = tested on: COLO 205 colon
HCT-116 colon = tested on: HCT-116 colon
HL-60(TB) leukemia = tested on: HL-60(TB) leukemia
HOP-62 NSCLC = tested on: HOP-62 NSCLC
M14 melanoma = tested on: M14 melanoma
MDA-MB-231 breast = tested on: MDA-MB-231 breast
NCI-H460 lung = tested on: NCI-H460 lung
NCI-H522 lung = tested on: NCI-H522 lung
NCI/ADR-RES ovarian = tested on: NCI/ADR-RES ovarian
OVCAR-4 ovarian = tested on: OVCAR-4 ovarian
OVCAR-8 ovarian = tested on: OVCAR-8 ovarian
PC-3 prostate = tested on: PC-3 prostate
SF-295 CNS = tested on: SF-295 CNS
SK-OV-3 ovarian = tested on: SK-OV-3 ovarian
SN12C renal = tested on: SN12C renal
SNB-75 CNS = tested on: SNB-75 CNS
TK-10 renal = tested on: TK-10 renal

| SMILES | TGI (A498 renal) [µM] | TGI (ACHN renal) [µM] | TGI (BT-549 breast) [µM] | TGI (COLO 205 colon) [µM] | TGI (HCT-116 colon) [µM] | TGI (HL-60(TB) leukemia) [µM] | TGI (HOP-62 NSCLC) [µM] | TGI (M14 melanoma) [µM] | TGI (MDA-MB-231 breast) [µM] | TGI (NCI-H460 lung) [µM] | TGI (NCI-H522 lung) [µM] | TGI (NCI/ADR-RES ovarian) [µM] | TGI (OVCAR-4 ovarian) [µM] | TGI (OVCAR-8 ovarian) [µM] | TGI (PC-3 prostate) [µM] | TGI (SF-295 CNS) [µM] | TGI (SK-OV-3 ovarian) [µM] | TGI (SN12C renal) [µM] | TGI (SNB-75 CNS) [µM] | TGI (TK-10 renal) [µM] |
| --- | --- | --- | --- | --- | --- | --- | --- | --- | --- | --- | --- | --- | --- | --- | --- | --- | --- | --- | --- | --- |
| COC(=O)c1ccccc1C1CN=NC12Cc1cc(C)cc(C)c1C2=O (stereo not given) | 66.2 | > 100 | > 100 | > 100 | > 100 | 51.7 | > 100 | > 100 | > 100 | > 100 | 90 | > 100 | > 100 | > 100 | > 100 | > 100 | > 100 | > 100 | > 100 | > 100 |
| Cc1cc(O)c2c(c1)CC(O)C1=C2C(=O)c2c(O)ccc(OC3CC(O)C(OC4CC(OC5CCC(O)C(C)O5)C(O)C(C)O4)C(C)O3)c2C1=O (stereo not given) | 4.91 | 2.95 | 3.42 | 2.95 | 3.47 | 1.68 | 3.77 | 3.04 | 3.58 | 4.85 | 2.52 | 9.61 | 3.45 | 3.51 | 3.96 | 7.47 | 6.71 | 3.25 | 7.73 | 4.03 |
| Cn1c(=O)c2c(nc3n(C)c(=O)c4ccccc4n23)n(C)c1=O | > 63.6 | 66.7 | > 100 | > 100 | > 100 | > 100 | > 84.3 | > 100 | > 100 | > 100 | > 100 | > 100 | > 100 | > 100 | > 100 | > 91.4 | > 100 | > 100 | > 93.5 | > 100 |
| CCOC(=O)c1cc(Br)c(-c2onc(C)c2Br)n1C | > 100 | > 100 | > 100 | 85.7 | 41.6 | 27.5 | > 100 | > 100 | > 100 | > 100 | 72.7 | > 100 | > 100 | > 100 | > 100 | 76.2 | 59.8 | 56.8 | 53 | > 100 |
| COc1ccc(C(c2ccc3c(c2)OCO3)N2C(=O)CCC2C(=O)O)cc1 (stereo not given) | > 100 | > 100 | > 100 | > 100 | > 100 | > 100 | > 100 | > 100 | > 100 | > 100 | > 100 | > 100 | > 100 | > 100 | > 100 | > 100 | > 100 | > 100 | > 100 | > 100 |
| CCOC(=O)c1ccc(Nc2nc3cc(C(F)(F)F)ccc3nc2C(=O)OCC)cc1 | > 100 | > 100 | > 100 | > 100 | > 100 | > 100 | 65.2 | > 100 | > 100 | > 100 | > 100 | > 100 | – | > 100 | > 100 | > 100 | > 100 | > 100 | > 100 | 63.1 |
| O=C(c1cccs1)N(Cc1cccnc1)C(=S)N(Cc1cccnc1)C(=O)c1cccs1 | 97.4 | > 100 | > 100 | > 100 | > 100 | > 100 | > 100 | > 100 | > 100 | > 100 | > 100 | > 100 | > 100 | > 100 | > 100 | > 100 | > 100 | > 100 | > 100 | > 100 |
| COC(=O)/C=C1/OC(c2ccc(C)cc2)=C(Cl)C1=O | 33.6 | 30.4 | 42.2 | 23.7 | 24.7 | 10.2 | 38.8 | 35.5 | 33.6 | 51 | 23.2 | 56.1 | 27.5 | 41.3 | 27.7 | 41.7 | 59.3 | 38 | 35.5 | 34.9 |
| COc1cccc(Nc2nc(N)nc(N)c2N=O)c1 | 47.7 | 89 | 96.8 | 51.9 | 38.2 | 79 | > 100 | 86.6 | > 100 | 29.1 | 29.5 | 52.5 | 78.5 | 40.9 | > 100 | 76.6 | > 100 | > 100 | 91.1 | 60.5 |
| Oc1cccc2c1[nH]c1c(C3=C[C@@]4(O)CC/C=C\CCCCN5CC[C@@H]3[C@]3(CC6/C=C\CCCCN6[C@H]34)C5)nccc12 (stereo not given in full) | 7.65 | 4.1 | 4.37 | 3.71 | 2.74 | 2.59 | 1.85 | 2.45 | 2.81 | 2.19 | 2.4 | 6.31 | 2.79 | 2.88 | 3.87 | 3.29 | 5.15 | 2.49 | 3.86 | 5.56 |
| CCn1c2ccccc2c2cc(NC(=O)c3c(NCCNCCO)nc(=O)[nH]c3C)ccc21 | > 100 | > 100 | > 100 | > 100 | > 100 | > 100 | > 100 | > 100 | > 100 | > 100 | > 100 | > 100 | > 100 | > 100 | > 100 | > 100 | > 100 | > 100 | > 100 | > 100 |
| Cc1ccc(S(=O)(=O)Nn2c(O)c(C#N)c(-c3ccc(N(C)C)cc3)c(C#N)c2=O)cc1 | > 50 | > 50 | > 50 | > 50 | > 50 | > 50 | > 50 | – | > 50 | > 50 | > 50 | > 50 | > 50 | > 50 | > 50 | 5.32 | 27.4 | > 50 | > 50 | > 50 |
| CC1=C[C@@H]2[C@@H](CC(CO)=C[C@H]3[C@@H]4C(C)(C)[C@]4(OCC(C)C)[C@H](OCC(C)C)[C@@H](C)[C@]23O)C1=O | > 4.44 | 3.4 | 2.65 | 1.4 | > 4.72 | > 5.52 | 2.8 | > 5.15 | 3.39 | > 8.32 | 4.58 | 8.31 | > 8.32 | > 6.08 | > 4.51 | > 8.32 | > 8.32 | 4.22 | > 8.32 | > 5.97 |
| CCN(CC)C(=S)SS(=O)(=O)c1ccc(NC(C)=O)cc1 | > 89.5 | > 88.8 | > 78.4 | > 72.1 | 31.1 | 76.4 | 42 | 33 | 36.4 | > 100 | 0.84 | 95.4 | 54.3 | 29.1 | > 100 | > 100 | > 100 | 39.1 | 97.2 | > 76 |
| COC(=O)c1ccc(NCC2=CC(=O)C=CC2=O)cc1 | 27.6 | 27 | 27 | 8.67 | 30.4 | 5.5 | – | 15.8 | 30.7 | – | 3.11 | 35.5 | 26.5 | 39.9 | 37 | – | 30.3 | – | 30.3 | 22.7 |
| N#CC1(C#N)C(c2ccccc2)C=CC(c2ccc([N+](=O)[O-])cc2)C1(C#N)C#N (stereo not given) | 32.1 | 9.54 | 24.3 | 3.13 | 13.7 | 0.574 | 31.7 | 15.7 | 28.1 | > 100 | 9.48 | > 74.4 | 30.5 | 27.5 | 25 | 33.7 | 34.5 | 12.2 | 47.7 | 13.1 |
| CC(C)NC(=O)OCc1c(COC(=O)NC(C)C)c(-c2ccc[n+](COC(=O)C(C)(C)C)c2)n2c1CCC2 | > 91.9 | > 100 | > 100 | > 100 | > 100 | > 94.9 | > 100 | > 100 | > 100 | > 100 | > 81.5 | > 100 | > 100 | > 100 | > 100 | > 100 | > 100 | > 100 | > 100 | > 100 |
| O=c1c(=[n+]2ccc(=C([O-])c3ccccc3)cc2)/c(=N/S(=O)(=O)c2ccccc2)c(=O)c2ccccc12 | 32 | 25.3 | 18 | 27.2 | 23.5 | 4.95 | 22.7 | 23.9 | 26.1 | 36.2 | 18.3 | 24.3 | 25.9 | 26.7 | 23.6 | 24.3 | 29.2 | 19 | 27.7 | 32.2 |
| O=C1C=C2CC[C@H]3[C@@H]4CC[C@H](OC(=O)c5cccc6cc7ccccc7nc56)[C@H]4CC[C@@H]3[C@H]2CC1 | > 100 | > 100 | > 100 | > 100 | > 100 | > 100 | > 100 | > 100 | > 100 | – | 69.2 | > 100 | > 100 | > 100 | > 100 | > 100 | > 100 | > 100 | > 100 | > 100 |
| COc1ccc(C(SCC(N)C(=O)O)(c2ccc(OC)cc2)c2ccc(OC)cc2)cc1 (stereo not given) | 22.7 | 18.6 | 28 | 17 | 15.6 | > 31.6 | 17.8 | 15.1 | 19.6 | 17.3 | 39.8 | 19.4 | 27.7 | 18 | 17.9 | 17.8 | 72.3 | 17.7 | 19.4 | 25.6 |
| O=C1COCCN1C(=O)c1ccccc1Cl | > 100 | > 100 | > 100 | – | > 100 | > 100 | > 100 | > 100 | > 100 | > 100 | > 100 | > 100 | > 100 | > 100 | > 100 | > 100 | – | > 100 | > 100 | > 100 |
| CCOC(=O)c1cc(C#N)[nH]c1-c1ccsc1 | > 100 | > 100 | > 100 | > 100 | > 100 | 41.5 | > 100 | > 100 | > 100 | > 100 | 90.2 | 94.9 | > 100 | > 100 | 70.4 | > 100 | > 100 | > 100 | 97.4 | > 100 |
| C=C(CN)CO[Si](C)(C)C(C)(C)C | > 100 | > 100 | > 100 | > 100 | > 100 | > 100 | > 100 | > 100 | > 100 | > 100 | > 100 | > 100 | – | > 100 | > 100 | > 100 | > 100 | > 100 | > 100 | > 100 |
